This is an account of results in patent US10280179B2, “Spiroquinoxaline derivatives as inhibitors of non-apoptotic regulated cell-death” (Helmholtz Zentrum Munchen—Deutches Forschungszentrum Fur …, priority 2013, dated 2019).

Structures are written as SMILES. Bounds are passed on as bounds.

The first data set deals with mouse hippocampal cell line (Ht22). The data set is described as follows: Inhibition of glutamate-induced non-apoptotic cell death (Example B.2). The note with it: HT-22, Ht22 cells, glutamate-induced cell death, read-out: Ht22/GLU. In kind it is cell-based. The method, boiled down: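 Protection from lethal glutamate (5 mM final) measured in mouse hippocampal Ht22 cells co-treated at seeding with compound from 0.5 pM to 100 μM, in triplicate. Survival read after 72 h at 37 °C/5% CO2, against glutamate-only and alpha-tocopherol controls.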
As to `Cc1cc(C)cc(CNC2=Nc3ccccc3NC23CCNCC3)c1` [N-217], the IC50 is below 50 nM.

On to `Clc1ccccc1CNC1=Nc2ccccc2NC12CCOCC2` [O/S-1], for which the IC50 was below 1000 nM.

For the compound `Clc1ccc2c(c1)N=C(NCc1ccccc1)C1(CCCCC1)N2` [C-258], the IC50 is below 500 nM.

`Clc1cccc(CNC2=Nc3cc4c(cc3NC23CCCCC3)OCCO4)c1` [C-227]: the IC50 is below 1000 nM.

`Cc1cc2c(cc1C)NC1(CCNCC1)C(NCc1cccc(C(F)(F)F)c1)=N2` [N-251]: the IC50 was below 50 nM.

Regarding `FC(F)(F)c1cccc2c1N=C(NCc1ccccc1)C1(CCCCC1)N2` [C-254], the IC50 was below 500 nM.

For the compound `CC1(C)CCC2(CC1)Nc1ccccc1N=C2NCc1ccccc1` [C-253], the IC50 was below 1000 nM.

For `CN1CCC2(CC1)Nc1cc(Cl)c(Cl)cc1N=C2NCc1ccccc1` [N-230], the IC50 was below 10 nM.

With `CN1CCC2(CC1)Nc1ccccc1N=C2NCc1cccc(Cl)c1` [N-90], the IC50 is below 200 nM.

As to `Clc1ccc(CNC2=Nc3ccccc3NC23CCOCC3)cc1Cl` [O/S-345], the IC50 was below 500 nM.

Take `CC(=O)NC1CCC2(CC1)Nc1ccccc1N=C2NCc1cccc(Cl)c1` (centres unmarked) [C-111]: the IC50 is below 1000 nM.

In the case of `FC1(F)Oc2cc3c(cc2O1)NC1(CCCCC1)C(NCc1ccccc1)=N3` [C-256], the IC50 was below 200 nM.

For `Clc1cccc(CNC2=Nc3ccccc3NC23CCOCC3)c1` [O/S-2], the IC50 was below 1000 nM.

As for `NC1CCC2(CC1)Nc1ccccc1N=C2NCc1ccccc1` (centres unmarked) [C-257], the IC50 is below 500 nM.

Regarding `CC(=O)N1CCC2(CC1)Nc1ccccc1N=C2NCc1cccc(Cl)c1` [N-99], the IC50 is below 1000 nM.

For `Fc1ccc(CNC2=Nc3cc(Cl)c(Cl)cc3NC23CCCCC3)c(F)c1` [C-265], the IC50 was below 500 nM.

For the compound `FC(F)(F)c1cccc(CNC2=Nc3cc(Cl)c(Cl)cc3NC23CCNCC3)c1` [N-260], the IC50 is below 50 nM.

Test system in another data set: not listed separately
The data set is described as follows: Cellular toxicity, same assay as Example B.4 without TAM (Example B.5). The note with it: mouse; Pfa1 cells without TAM; read-out: TC50 (the source's name). The format is cell-based. From the text: Cellular Toxicity of Compounds of the Invention
An estimate of the toxicity for compounds of the invention was obtained by using the same assay as described in Example B.4, but without the addition of TAM. […] Such TC50 values obtained for certain compounds disclosed herein, together with an approximate therapeutic window (estimated by dividing each TC50 by the corresponding IC50 determined from example B.4) are shown in Table 3.
`Cc1cc(C)cc(CNC2=Nc3ccccc3NC23CCNCC3)c1` [N-217]: the CC50 was in the range of 20000 to 50000 nM.

Regarding `Clc1ccccc1CNC1=Nc2ccccc2NC12CCOCC2` [O/S-1], the CC50 fell in the range of 50000 to 100000 nM.

With `Clc1ccc2c(c1)N=C(NCc1ccccc1)C1(CCCCC1)N2` [C-258], the CC50 lay within 10000 to 20000 nM.

For the compound `Clc1cccc(CNC2=Nc3cc4c(cc3NC23CCCCC3)OCCO4)c1` [C-227], the CC50 lay in the range of 20000 to 50000 nM.

Consider `Cc1cc2c(cc1C)NC1(CCNCC1)C(NCc1cccc(C(F)(F)F)c1)=N2` [N-251], for which the CC50 lay in the range of 500 to 1000 nM.

For the compound `FC(F)(F)c1cccc2c1N=C(NCc1ccccc1)C1(CCCCC1)N2` [C-254], the CC50 was in the range of 5000 to 10000 nM.

In the case of `CC1(C)CCC2(CC1)Nc1ccccc1N=C2NCc1ccccc1` [C-253], the CC50 lay in the range of 10000 to 20000 nM.

With `CN1CCC2(CC1)Nc1cc(Cl)c(Cl)cc1N=C2NCc1ccccc1` [N-230], the CC50 lay within 500 to 1000 nM.

`CN1CCC2(CC1)Nc1ccccc1N=C2NCc1cccc(Cl)c1` [N-90]: the CC50 was in the range of 10000 to 20000 nM.

As for `Clc1ccc(CNC2=Nc3ccccc3NC23CCOCC3)cc1Cl` [O/S-345], the CC50 fell in the range of 20000 to 50000 nM.

As to `CC(=O)NC1CCC2(CC1)Nc1ccccc1N=C2NCc1cccc(Cl)c1` (centres unmarked) [C-111], the CC50 was 10000 to 20000 nM.

For `FC1(F)Oc2cc3c(cc2O1)NC1(CCCCC1)C(NCc1ccccc1)=N3` [C-256], the CC50 fell in the range of 20000 to 50000 nM.

In the case of `Clc1cccc(CNC2=Nc3ccccc3NC23CCOCC3)c1` [O/S-2], the CC50 lay in the range of 20000 to 50000 nM.

With `NC1CCC2(CC1)Nc1ccccc1N=C2NCc1ccccc1` (centres unmarked) [C-257], the CC50 is 2000 to 5000 nM.

Consider `CC(=O)N1CCC2(CC1)Nc1ccccc1N=C2NCc1cccc(Cl)c1` [N-99], for which the CC50 is 50000 to 100000 nM.

Turning to `Fc1ccc(CNC2=Nc3cc(Cl)c(Cl)cc3NC23CCCCC3)c(F)c1` [C-265], the CC50 lay within 10000 to 20000 nM.

For the compound `FC(F)(F)c1cccc(CNC2=Nc3cc(Cl)c(Cl)cc3NC23CCNCC3)c1` [N-260], the CC50 was 500 to 1000 nM.

The test system of a further data set is Pfa1 cells. The data set is described as follows: Inhibition of non-apoptotic cell death after tamoxifen-induced GPx4 knockout in a recombinant cell line (Example B.4). In kind it is cell-based. The note with it: Mus musculus, read-out: Pfa1/TAM IC50. The gist of the method: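 Immortalised murine fibroblasts with tamoxifen-inducible CreERT2 for ablation of both GPx4 copies (Pfa1 cells) received tamoxifen on day 0 together with test compound. Cell survival was measured by AlamarBlue after 72 hours.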
Turning to `Cc1cc(C)cc(CNC2=Nc3ccccc3NC23CCNCC3)c1` [N-217], the IC50 was below 100 nM.

Consider `Clc1ccccc1CNC1=Nc2ccccc2NC12CCOCC2` [O/S-1], for which the IC50 is below 1000 nM.

In the case of `Clc1ccc2c(c1)N=C(NCc1ccccc1)C1(CCCCC1)N2` [C-258], the IC50 is below 200 nM.

Turning to `Clc1cccc(CNC2=Nc3cc4c(cc3NC23CCCCC3)OCCO4)c1` [C-227], the IC50 was below 50 nM.

As for `Cc1cc2c(cc1C)NC1(CCNCC1)C(NCc1cccc(C(F)(F)F)c1)=N2` [N-251], the IC50 is below 100 nM.

In the case of `FC(F)(F)c1cccc2c1N=C(NCc1ccccc1)C1(CCCCC1)N2` [C-254], the IC50 is below 500 nM.

As to `CC1(C)CCC2(CC1)Nc1ccccc1N=C2NCc1ccccc1` [C-253], the IC50 was below 1000 nM.

In the case of `CN1CCC2(CC1)Nc1cc(Cl)c(Cl)cc1N=C2NCc1ccccc1` [N-230], the IC50 was below 10 nM.

For `CN1CCC2(CC1)Nc1ccccc1N=C2NCc1cccc(Cl)c1` [N-90], the IC50 is below 20 nM.

Turning to `Clc1ccc(CNC2=Nc3ccccc3NC23CCOCC3)cc1Cl` [O/S-345], the IC50 was below 100 nM.

In the case of `CC(=O)NC1CCC2(CC1)Nc1ccccc1N=C2NCc1cccc(Cl)c1` (centres unmarked) [C-111], the IC50 is below 1000 nM.

With `FC1(F)Oc2cc3c(cc2O1)NC1(CCCCC1)C(NCc1ccccc1)=N3` [C-256], the IC50 was below 100 nM.

Consider `Clc1cccc(CNC2=Nc3ccccc3NC23CCOCC3)c1` [O/S-2], for which the IC50 was below 500 nM.

On to `NC1CCC2(CC1)Nc1ccccc1N=C2NCc1ccccc1` (centres unmarked) [C-257], for which the IC50 was below 200 nM.

As to `CC(=O)N1CCC2(CC1)Nc1ccccc1N=C2NCc1cccc(Cl)c1` [N-99], the IC50 was below 1000 nM.

Take `Fc1ccc(CNC2=Nc3cc(Cl)c(Cl)cc3NC23CCCCC3)c(F)c1` [C-265]: the IC50 was below 500 nM.

With `FC(F)(F)c1cccc(CNC2=Nc3cc(Cl)c(Cl)cc3NC23CCNCC3)c1` [N-260], the IC50 was below 20 nM.

The subject of the next data set is human neuroblastoma cell line SH-SY5Y. Put plainly: Inhibition of BSO-induced non-apoptotic cell death (Example B.1). The format is cell-based. The note with it: SH-SY5Y cells, 50 μM BSO, 72 hours, read-out: SH-SY5Y/BSO IC50. From the text:
Inhibition of BSO-Induced Non-Apoptotic Cell Death by Compounds Disclosed Herein
L-Buthionine sulfoximine (BSO) is a well-known glutathione (GSH) depletory, which inhibits gamma-glutamyl-cysteine-synthetase, the enzyme catalyzing the rate-limiting step in GSH biosynthesis. The human neuroblastoma cell line SH-SY5Y is sensitive to BSO-induced intracellular glutathione depletion, which causes high levels of reactive oxygen species (ROS) and cellular stress mimicking cellular conditions following ischemia (cf., e.g., Yamada et al., Neurochem. Int. 59:1003-9 (2011)).
Compounds disclosed herein were evaluated for their ability to promote cell survival upon administration of a lethal dose of BSO to cell-culture medium. Briefly, SH-SY5Y cells (ATCC® CRL-2266™) were propagated in DMEM supplemented with 10% FBS/1% Penicillin-Streptomycin, and then seeded onto 96-well plates at a concentration of 750 cells/well in 100 μL of media, to which BSO (Sigma Aldrich) was added (to a final concentration of 50 μM) together with increasing concentrations of the compound to be tested, and the plates incubated at 37° C./5% CO2 for 72 hours. Compound dilutions (0.5 pM to 100 μM) were prepared from 10 mM stocks dissolved in DMSO and diluted in media. Cells treated with BSO alone were used as negative control and alpha-Tocopherol (Sigma Aldrich) was used as positive control. Compound concentrations were tested in triplicate. After incubation, cell survival was detected using the live/dead cell assay AquaBluer™ (MultiTarget Pharmaceuticals) and quantified using a fluorescence plate reader (excitation filter: 530-560 nm/emission filter: 590 nm) (SpectraMax M4; Molecular Devices). Fluorescence data so obtained was normalised to the percentage of surviving cells and IC50 values calculated using the GraphPad Prism (GraphPad Software, Inc) software package.
For the compound `Cc1cc(C)cc(CNC2=Nc3ccccc3NC23CCNCC3)c1` [N-217], the IC50 was below 50 nM.

`Clc1ccccc1CNC1=Nc2ccccc2NC12CCOCC2` [O/S-1]: the IC50 is below 500 nM.

Turning to `Clc1ccc2c(c1)N=C(NCc1ccccc1)C1(CCCCC1)N2` [C-258], the IC50 is below 50 nM.

As for `Clc1cccc(CNC2=Nc3cc4c(cc3NC23CCCCC3)OCCO4)c1` [C-227], the IC50 was below 500 nM.

In the case of `Cc1cc2c(cc1C)NC1(CCNCC1)C(NCc1cccc(C(F)(F)F)c1)=N2` [N-251], the IC50 was below 10 nM.

As to `FC(F)(F)c1cccc2c1N=C(NCc1ccccc1)C1(CCCCC1)N2` [C-254], the IC50 is below 50 nM.

Consider `CC1(C)CCC2(CC1)Nc1ccccc1N=C2NCc1ccccc1` [C-253], for which the IC50 is below 100 nM.

On to `CN1CCC2(CC1)Nc1cc(Cl)c(Cl)cc1N=C2NCc1ccccc1` [N-230], for which the IC50 was below 10 nM.

Consider `CN1CCC2(CC1)Nc1ccccc1N=C2NCc1cccc(Cl)c1` [N-90], for which the IC50 is below 50 nM.

In the case of `Clc1ccc(CNC2=Nc3ccccc3NC23CCOCC3)cc1Cl` [O/S-345], the IC50 was below 100 nM.

Turning to `CC(=O)NC1CCC2(CC1)Nc1ccccc1N=C2NCc1cccc(Cl)c1` (centres unmarked) [C-111], the IC50 was below 500 nM.

For `FC1(F)Oc2cc3c(cc2O1)NC1(CCCCC1)C(NCc1ccccc1)=N3` [C-256], the IC50 was below 50 nM.

Take `Clc1cccc(CNC2=Nc3ccccc3NC23CCOCC3)c1` [O/S-2]: the IC50 was below 200 nM.

Regarding `NC1CCC2(CC1)Nc1ccccc1N=C2NCc1ccccc1` (centres unmarked) [C-257], the IC50 was below 100 nM.

As for `CC(=O)N1CCC2(CC1)Nc1ccccc1N=C2NCc1cccc(Cl)c1` [N-99], the IC50 is below 200 nM.

`Fc1ccc(CNC2=Nc3cc(Cl)c(Cl)cc3NC23CCCCC3)c(F)c1` [C-265]: the IC50 was below 50 nM.

Turning to `FC(F)(F)c1cccc(CNC2=Nc3cc(Cl)c(Cl)cc3NC23CCNCC3)c1` [N-260], the IC50 was below 20 nM.
